Data on 32 molecules can be found in patent US8772316B2, “Substituted 6,7-dialkoxy-3-isoquinolinol derivatives as inhibitors of phosphodiesterase 10 (PDE10A)” (Allergan, Inc., priority 2011, dated 2014).

Structures can show the parent of a compound that is named as a salt. A value given as a limit tells only on which side of the number the result lay.

In general, IC50 refers to the concentration at which inhibition is half-maximal. Low readings indicate inhibition by little substance, high ones a need for much substance.

The assay has as its target PDE10A. In words: Phosphodiesterase assay (TR-FRET, LANCE cAMP kit). The following applies: PDE10A (BPS Bioscience) 200 pg/well, biotin-cAMP substrate, 60 min at room temperature. It is filed as biochemical. The procedure:
The PDE assay is based on the homogenous time-resolved fluorescence resonance energy transfer (TR-FRET) technology (LANCE® from Perkin Elmer). […] When there is PDE activity, resulting in the degradation of the cyclic nucleotide, the complex is not formed and a decrease in signal is observed.
The phosphodiesterase assay was developed using the LANCE® cAMP kit (PerkinElmer). The assay buffer contained HBSS with 5 mM HEPES, 0.1% BSA, and 1.5 mM MgCl2, pH 7.4. PDE10A (BPS Bioscience) was used at 200 pg/well (with a specific activity of 3200 pmole/min/μg with assay conditions: 10 mM Tris-HCl, pH7.4, 10 mM MgCl2, 1 mM MnCl2, 200 μM cAMP, 2.5 kU 5′ nucleotidase, 37° C., 20 min). […] Chemical compounds were dissolved in DMSO (final concentration 2% (v/v)).
In a 384-well plate, 2 μL inhibitor and 3 μL PDE were added to the well, followed by the addition of 5 μl substrate biotinylated cAMP (1:5). After 60 min incubation at room temperature, 10 μL of assay detection mixture was added to the assay plate. After 1 h at room temperature, the signal was measured on EnVision™ (Perkin Elmer).
`CCCc1nc(O)c(Cc2cc3cc(C)ccc3nc2NC)c2cc(OC)c(OC)cc12` [Compound 34, 6,7-dimethoxy-4-((6-methyl-2-(methylamino)quinolin-3-yl)methyl)-1-propylisoquinolin-3-ol dihydrochloride] showed a 50% inhibitory concentration (IC50) of 1.9 nM.
With `CCc1nc(O)c(Cc2cc3cc(OC)ccc3nc2NC)c2cc(OC)c(OC)cc12` [Compound 39, 1-ethyl-6,7-dimethoxy-4-((6-methoxy-2-(methylamino)quinolin-3-yl)methyl)isoquinolin-3-ol dihydrochloride], the IC50 was 1.6 nM.
In turn, `CCc1nc(O)c(Cc2ccc3nc(C)ccc3c2)c2cc(OC)c(OC)cc12` [Compound 81, 1-Ethyl-6,7-dimethoxy-4-((2-methylquinolin-6-yl)methyl)isoquinolin-3-ol dihydrochloride] came in with an IC50 of 7.5 nM. Compared with the last molecule, the IC50 is about 4.7-fold higher.
On to `COc1cc2c(C)nc(O)c(Cc3cnc4ccccc4c3)c2cc1OC` [Compound 26, 6,7-Dimethoxy-1-methyl-4-(quinolin-3-ylmethyl)isoquinolin-3-ol dihydrochloride], for which the IC50 is 24 nM.
`COc1cc2c(C)nc(O)c(Cc3cccc(-c4ccccc4)n3)c2cc1OC` [Compound 12, 6,7-dimethoxy-1-methyl-4-((6-phenylpyridin-2-yl)methyl)isoquinolin-3-ol dihydrochloride] came in with an IC50 of 94 nM.
`COc1ccc2nc(NCCNC(C)=O)c(Cc3c(O)nc(C)c4cc(OC)c(OC)cc34)cc2c1` [Compound 73, N-(2-(3-((3-hydroxy-6,7-dimethoxy-1-methylisoquinolin-4-yl)methyl)-6-methoxyquinolin-2-ylamino)ethyl)acetamide dihydrochloride] displayed a 50% inhibitory concentration (IC50) of 2.7 nM.
`CCc1nc(O)c(Cc2cc3cc(OC)ccc3nc2NCc2ccccc2)c2cc(OC)c(OC)cc12` [Compound 44, 4-((2-(Benzylamino)-6-methoxyquinolin-3-yl)methyl)-1-ethyl-6,7-dimethoxyisoquinolin-3-ol dihydrochloride] yielded a concentration for half-maximal inhibition (IC50) of 8 nM.
Turning to `CCNc1nc2ccc(OCC)cc2cc1Cc1c(O)nc(CC)c2cc(OC)c(OC)cc12` [Compound 41, 4-((6-Ethoxy-2-(ethylamino)quinolin-3-yl)methyl)-1-ethyl-6,7-dimethoxyisoquinolin-3-ol dihydrochloride], half-maximal inhibition (IC50) required 5 nM. This IC50 lies about 1.6-fold lower than the previous one.
Next, `CCc1nc(O)c(Cc2cnc3ccccc3c2)c2cc(OC)c(OC)cc12` [Compound 78, 1-ethyl-6,7-dimethoxy-4-(quinolin-3-ylmethyl)isoquinolin-3-ol dihydrochloride]: 27 nM.
For `CCCNc1nc2ccc(OC)cc2cc1Cc1c(O)nc(CC)c2cc(OC)c(OC)cc12` [Compound 42, 1-ethyl-6,7-dimethoxy-4-((6-methoxy-2-(propylamino)quinolin-3-yl)methyl)isoquinolin-3-ol dihydrochloride], the IC50 was determined as 0.5 nM.
Molecule `CCCc1nc(O)c(Cc2cnc3ccc(OC)cc3c2)c2cc(OC)c(OC)cc12` [Compound 84, 6,7-Dimethoxy-4-((6-methoxyquinolin-3-yl)methyl)-1-propylisoquinolin-3-ol dihydrochloride] registered an IC50 of 1.6 nM.
With `CCNc1nc2ccc(OC)cc2cc1C(=O)c1c(O)nc(C)c2cc(OC)c(OC)cc12` [Compound 75, (2-(ethylamino)-6-methoxyquinolin-3-yl)(3-hydroxy-6,7-dimethoxy-1-methylisoquinolin-4-yl)methanone dihydrochloride], the concentration for half-maximal inhibition (IC50) is > 1000 nM.
`CCCc1nc(O)c(Cc2cc3cc(OC)ccc3nc2C(F)(F)F)c2cc(OC)c(OC)cc12` [Compound 72, 6,7-Dimethoxy-4-((6-methoxy-2-(trifluoromethyl)quinolin-3-yl)methyl)-1-propylisoquinolin-3-ol hydrochloride] returned an IC50 of 445 nM.
Next, `CCCc1nc(O)c(Cc2cc3cc(OC)ccc3nc2CC)c2cc(OC)c(OC)cc12` [Compound 66, 4-((2-ethyl-6-methoxyquinolin-3-yl)methyl)-6,7-dimethoxy-1-propylisoquinolin-3-ol dihydrochloride]: 16 nM; `CNc1nc2cc3c(cc2cc1Cc1c(O)nc(C)c2cc(OC)c(OC)cc12)OCO3` [Compound 60, 6,7-dimethoxy-1-methyl-4-((6-(methylamino)-[1,3]dioxolo[4,5-g]quinolin-7-yl)methyl)isoquinolin-3-ol dihydrochloride]: 2.7 nM; `CCCc1nc(O)c(Cc2cc3cc(OC)ccc3nc2NCCNC(C)=O)c2cc(OC)c(OC)cc12` [Compound 55, N-(2-((3-((3-hydroxy-6,7-dimethoxy-1-propylisoquinolin-4-yl)methyl)-6-methoxyquinolin-2-yl)amino)ethyl)acetamide dihydrochloride]: 4.4 nM.
In the case of `CNc1nc2cc(O)c(O)cc2cc1Cc1c(O)nc(C)c2cc(OC)c(OC)cc12` [Compound 59, 3-((3-hydroxy-6,7-dimethoxy-1-methylisoquinolin-4-yl)methyl)-2-(methylamino)quinoline-6,7-diol dihydrochloride] it was 27 nM.
`CCCCc1nc2ccc(OC)cc2cc1Cc1c(O)nc(CCC)c2cc(OC)c(OC)cc12` [Compound 71, 4-((2-Butyl-6-methoxyquinolin-3-yl)methyl)-6,7-dimethoxy-1-propylisoquinolin-3-ol dihydrochloride] came in with an IC50 of 93 nM.
In the case of `COc1cc2c(C)nc(O)c(Cc3ccc4ncccc4c3)c2cc1OC` [Compound 24, 6,7-dimethoxy-1-methyl-4-(quinolin-6-ylmethyl)isoquinolin-3-ol dihydrochloride] it was 86 nM; in that of `CCc1nc(O)c(Cc2cccc(-c3ccccc3)c2)c2cc(OC)c(OC)cc12` [Compound 8, 4-([1,1′-Biphenyl]-3-ylmethyl)-1-ethyl-6,7-dimethoxyisoquinolin-3-ol hydrochloride], 6710 nM; in that of `CCNc1nc2cc(F)c(OC)cc2cc1Cc1c(O)nc(CC)c2cc(OC)c(OC)cc12` [Compound 82, 1-Ethyl-4-((2-(ethylamino)-7-fluoro-6-methoxyquinolin-3-yl)methyl)-6,7-dimethoxyisoquinolin-3-ol dihydrochloride], 1.4 nM.
`CCc1nc(O)c(Cc2cnc3ccc(OC)cc3c2)c2cc(OC)c(OC)cc12` [Compound 85, 1-ethyl-6,7-dimethoxy-4-((6-methoxyquinolin-3-yl)methyl)isoquinolin-3-ol dihydrochloride] showed an IC50 of 0.4 nM.
With `CCNc1nc2ccc(OC)cc2cc1Cc1c(O)nc(CC)c2cc(OC)c(OC)cc12` [Compound 40, 1-Ethyl-6,7-dimethoxy-4-((6-methoxy-2-(ethylamino)quinolin-3-yl)methyl)isoquinolin-3-ol dihydrochloride], the IC50 worked out at 0.4 nM. This lies in the sub-nanomolar range.
`COc1cc2c(C)nc(OC)c(Cc3ccc4ccccc4c3)c2cc1OC` [Compound 18, 3,6,7-trimethoxy-1-methyl-4-(naphthalen-2-ylmethyl)isoquinoline hydrochloride] had an IC50 of 1410 nM. Against the preceding molecule, the IC50 is about 3500-fold higher.
For the molecule `COc1cc2c(C)nc(O)c(Cc3ccc4ccccc4c3)c2cc1OC` [Compound 17, 6,7-dimethoxy-1-methyl-4-(naphthalen-2-ylmethyl)isoquinolin-3-ol hydrochloride], half-maximal inhibition (IC50) required 14 nM.
The molecule `CCCc1nc(O)c(Cc2cc3cc4c(cc3nc2NC)OCO4)c2cc(OC)c(OC)cc12` [Compound 62, 6,7-dimethoxy-4-((6-(methylamino)-[1,3]-dioxolo[4,5-g]quinolin-7-yl)methyl)-1-propylisoquinolin-3-ol dihydrochloride] gave an IC50 of 1.1 nM.
Take `CCCc1nc(O)c(Cc2cc3cc(OC)ccc3nc2NCCOC)c2cc(OC)c(OC)cc12` [Compound 76, 6,7-dimethoxy-4-((6-methoxy-2-(2-methoxyethylamino)quinolin-3-yl)methyl)-1-propylisoquinolin-3-ol dihydrochloride]: the half-maximal inhibitory concentration (IC50) amounted to 2.3 nM. This IC50 is about 2.1-fold higher than that of the molecule before.
The molecule `CCCc1nc(O)c(Cc2cnc3ccccc3c2)c2cc(OC)c(OC)cc12` [Compound 74, 6,7-dimethoxy-1-propyl-4-(quinolin-3-ylmethyl)isoquinolin-3-ol hydrochloride] gave an IC50 of 6.1 nM.
Regarding `CCCc1nc(O)c(Cc2cc3cc(OCC4CC4)ccc3nc2NCCNC(C)=O)c2cc(OC)c(OC)cc12` [Compound 83, N-(2-(6-(cyclopropylmethoxy)-3-((3-hydroxy-6,7-dimethoxy-1-propylisoquinolin-4-yl)methyl)quinolin-2-ylamino)ethyl)acetamide dihydrochloride], the midpoint of inhibition, the IC50, lay at 10 nM.
Regarding `CCOc1cccc2ncc(Cc3c(O)nc(C)c4cc(OC)c(OC)cc34)cc12` [Compound 28, 4-((5-Ethoxyquinolin-3-yl)methyl)-6,7-dimethoxy-1-methylisoquinolin-3-ol dihydrochloride], the IC50 came to 6 nM. Against the preceding molecule, the IC50 is about 1.7-fold lower.
Consider `CCCc1nc(O)c(Cc2ccc3oc4ccccc4c3c2)c2cc(OC)c(OC)cc12` [Compound 7, 4-(Dibenzo[b,d]furan-2-ylmethyl)-6,7-dimethoxy-1-propylisoquinolin-3-ol hydrochloride], for which 0.5 nM corresponded to half-maximal inhibition (IC50).
For the molecule `CNc1nc2ccc(OC)cc2cc1Cc1c(O)nc(C)c2cc(OC)c(OC)cc12` [Compound 37, 6,7-Dimethoxy-4-((6-methoxy-2-(methylamino)quinolin-3-yl)methyl)-1-methyl-isoquinolin-3-ol dihydrochloride], the half-inhibitory concentration (IC50) is 6 nM.
